Results from patent US20250345391A1, “COMPOSITIONS AND METHODS FOR THE TREATMENT OF SEPSIS” (Children's Hospital Medical Center, priority 2022, published 2025).

Assays:
STAT3 = experiment: Western blot of STAT3 and phosphorylated forms in lung after CLP; assay type: in vivo, Male C57BL/6 mice; details: 6 h after CLP; colivelin 100 μg/kg i.p. at 1 h after CLP; vs vehicle
Text: (§1) The investigation conformed to the National Institutes of Health Guide for the Care and Use of Laboratory Animals (Eighth Edition, 2011) and was approved by the Institutional Animal Care and Use Committee of the Cincinnati Children's Hospital Medical Center. Male C57BL/6 mice were obtained from Charles River Laboratories International, Inc. (Wilmington, MA). Mice were used at 3-5 months of age to mimic the equivalent for human ranges from 20-25 years (29). Male mice only were chosen for the experimentation to avoid interference from female hormonal fluctuations in sepsis responses during the estrous cycle. Mice were housed in pathogen-free conditions under a 10-h light/14-h dark cycle with free access to food and water. Mice were anesthetized with 2.0% isoflurane in 50% oxygen and polymicrobial sepsis was induced by cecal ligation and puncture (CLP) (30). After a midline laparotomy, the cecum was exteriorized, ligated and punctured twice with a 23-G needle. The cecum was then returned into the peritoneal cavity and the abdominal incision was closed. After the procedure, mice were randomly assigned to three treatment groups: a vehicle-treated group received distilled water (200 μl/mouse) intraperitoneally (i.p.); a 100 μg colivelin-treated group received the colivelin at 100 μg/kg i.p., and a 200 μg colivelin-treated group received the colivelin at 200 μg/kg i.p. at 1 h after CLP. The intraperitoneal injection was chosen to allow for a rapid uptake and bioavailability of the peptide. All groups of mice also received fluid resuscitation (35 ml/kg normal saline solution subcutaneously) immediately after, at 3 h and 12 h after the CLP procedure. To minimize pain at the surgical incision site, lidocaine hydrochloride (1%, 4 mg/kg total dose) was applied locally immediately after the procedure. […] Mice were then sacrificed at 0, 6 and 18 h after CLP. Blood, lungs, kidneys, liver, and thoracic aortas were collected for biochemical assays.
Subcellular fractionation was performed using a centrifugation model. […] The Bradford protein assay was then used for quantitative determination of total proteins.
Cytosol content of total AMPKα1/α2 and its phosphorylated form pAMPKα1/α2 (Santa Cruz Biotechnology, Dallas, TX, USA), cytosol and nuclear content of STAT3 and its phosphorylated forms pSTAT3(Tyr705) and pSTAT3(Ser727) (Cell Signaling Technology, Danvers, MA, USA) were determined by immunoblot analyses; β-actin was concomitantly probed with mouse anti-β-actin (Santa Cruz Biotechnology) as a loading control for both cytosol and nuclear proteins. […] The immunoreaction was detected by near-infrared fluorescence. […]

[1] = system: polymicrobial sepsis by cecal ligation and puncture (CLP); experiment: Long-term studies of severity of sepsis (survival, severity score, body weight) up to 7 days after CLP; assay type: in vivo, Male C57BL/6 mice
Text: as §1
In a separate study, another cohort of mice was subjected to the CLP procedure and was used for assessing health and moribundity conditions, and survival rate up to 7 days. Mice were divided into two treatment groups in a blind and random fashion: a vehicle-treated group received distilled water (200 μl/mouse), and a colivelin-treated group received colivelin (100 μg/kg subcutaneously) at 1 h, 3 h and 24 h after the CLP procedure. Twelve animals were included for each group. One animal was sacrificed because of unintentional extensive damage in the small intestine during surgical procedure and was excluded from the study. The subcutaneous injection was chosen to avoid further stress in the peritoneum since the animals also received intraperitoneal treatment of antibiotics. To mimic the clinical management of antimicrobial coverage, all mice received ceftriaxone (25 mg/kg) and metronidazole (12.5 mg/kg) intraperitoneally every 12 h after CLP for three days. To minimize pain, buprenorphine (0.05 mg/kg) was administered subcutaneously at 1 h after surgery and every 12 h for three days after surgery. All groups of mice also received fluid resuscitation (35 ml/kg normal saline with 5% dextrose subcutaneously) every 24 h for all the duration of the experimental period. Although some spontaneous death occurred given the acute severity of the disease, spontaneous death was not considered as endpoint for this study for ethical reasons. […]

Colivelin (SALLRSIPAPAGASRLLLLTGEIDLP)
Cytosolic expression of pSTAT3(Ser727), lung (STAT3): significantly reduced
Cytosolic expression of pSTAT3(Tyr705), lung (STAT3): significantly reduced
Nuclear expression of pSTAT3(Ser727), lung (STAT3): lower than vehicle-treated mice, but not statistically significant
Nuclear expression of pSTAT3(Tyr705), lung (STAT3): lower than vehicle-treated mice, but not statistically significant
Health of survivor mice (severity score) at 6 and 7 days ([1]; 6 and 7 days after CLP, survivor mice, colivelin 100 μg/kg s.c., vs survivor vehicle-treated mice): significantly healthier
Mice survived at 7 days ([1]; 7 days after CLP, colivelin 100 μg/kg s.c. at 1 h, 3 h and 24 h, with antibiotics and fluids, vehicle 6 out of 12): 8 out of 11
Survival rate ([1]; 7 days after CLP, colivelin 100 μg/kg s.c. at 1 h, 3 h and 24 h, with antibiotics and fluids, vehicle 50%, not significant): 72.6%
Body weight, later time points ([1]; later than two days, up to 7 days after CLP, colivelin 100 μg/kg s.c., vs vehicle): vehicle-treated mice maintained a significant lower weight than colivelin-treated mice
Severity of signs of sepsis (severity score), all the observation period ([1]; up to 7 days after CLP, colivelin 100 μg/kg s.c. at 1 h, 3 h and 24 h, with antibiotics and fluids, vs vehicle): less severe signs of sepsis
